Laboratory results from patent US20250228239A1, “MOLECULES HAVING PESTICIDAL UTILITY, AND INTERMEDIATES, COMPOSITIONS, AND PROCESSES, RELATED THERETO” (priority 2024, published 2025).

Legend:
Assay type in all cases: in vivo
[1] = tested on: Cabbage Looper (Trichoplusia ni, TRIPNI); assay: Bioassays on Cabbage Looper (CL), 128-well diet tray assay; conditions: Trichoplusia ni; Cabbage Looper; rating class; read-out: CL
Summary of the method: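 Test molecule was dissolved in 90:10 acetone-water, applied to artificial diet at 50 μg/cm^2 and allowed to dry. Second-instar larvae were then added, one to five per well, and trays held at 25° C for five to seven days before mortality was scored and averaged.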

[2] = tested on: Green Peach Aphid (Myzus persicae, MYZUPE); assay: Bioassays on Green Peach Aphid (GPA), foliar spray on cabbage seedlings; conditions: 72 h, Green Peach Aphid, rating class, read-out: GPA
Summary of the method: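 Percent control (Abbott-corrected versus solvent-sprayed plants) comes from live-aphid counts three days after treatment at about 25° C. Test solution at 200 ppm was sprayed to runoff onto both leaf surfaces of cabbage seedlings infested a day earlier with 20-50 aphids; four replicate pots.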

[3] = tested on: Yellow Fever Mosquito (Aedes aegypti, AEDSAE); conditions: Yellow Fever Mosquito; rating class
Summary of the method: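 Larvae ~1 day old, in liver powder/water; compound from 4000 ppm DMSO stock diluted with water/acetone (90:10); 6 reps; lidded, RT, 3 d; mortality scored per well, rated.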

[4] = tested on: Beet Armyworm (Spodoptera exigua, LAPHEG); assay: Bioassays on Beet Armyworm (BAW), 128-well diet tray assay; conditions: Spodoptera exigua; Beet Armyworm; rating class; read-out: BAW
Summary of the method: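 Mortality of second-instar larvae (1–5/well) on artificial diet treated with 50 μg/cm^2 compound, read after 5–7 days at 25° C.; values are means of eight wells.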

SMILES | pest or weed control at 50 µg/cm2 [1] | pest or weed control at 200 µg/mL [2] | YFM [3] | pest or weed control at 50 µg/cm2 [4]
O=C(Nc1ccc(F)c(NC(=O)C(F)(F)F)c1F)c1cc(NC(=O)[C@H]2[C@H](c3ccc(Cl)c(Cl)c3)C2(Cl)Cl)ccc1F [F1492, 5-((1R,3R)-2,2-Dichloro-3-(3,4-dichlorophenyl)cyclopropane-1-carboxamido)-N-(2,4-difluoro-3-(2,2,2-trifluoroacetamido)phenyl)-2-fluorobenzamide] | 50 to 100% | 0 to 80% | A (80–100) | 50 to 100%
O=C(Nc1ccc(F)c(NC(=O)C(F)(F)F)c1F)c1cc(NC(=O)[C@H]2[C@H](c3ccc(F)c(C(F)(F)F)c3)C2(Cl)Cl)ccc1F [F1529, 5-((1R,3R)-2,2-Dichloro-3-(4-fluoro-3-(trifluoromethyl)phenyl)cyclopropane-1-carboxamido)-N-(2,4-difluoro-3-(2,2,2-trifluoroacetamido)phenyl)-2-fluorobenzamide] | 50 to 100% | 0 to 80% | A (80–100) | 50 to 100%
C[C@H]1CC[C@@H](C(=O)Nc2c(F)ccc(NC(=O)c3cc(NC(=O)[C@H]4[C@H](c5ccc(F)c(C(F)(F)F)c5)C4(Cl)Cl)ccc3Cl)c2F)O1 [F1612, (2S,5S)-N-(3-(2-Chloro-5-((1R,3R)-2,2-dichloro-3-(4-fluoro-3-(trifluoromethyl)phenyl)cyclopropane-1-carboxamido)benzamido)-2,6-difluorophenyl)-5-methyltetrahydrofuran-2-carboxamide] | 50 to 100% | 0 to 80% | A (80–100) | 50 to 100%
CC(=O)Nc1c(F)cc(F)c(NC(=O)c2cc(NC(=O)[C@H]3[C@H](c4ccc(F)c(C(F)(F)F)c4)C3(Cl)Cl)ccc2Cl)c1F [F1613, N-(3-Acetamido-2,4,6-trifluorophenyl)-2-chloro-5-((1R,3R)-2,2-dichloro-3-(4-fluoro-3-(trifluoromethyl)phenyl)cyclopropane-1-carboxamido)benzamide] | 50 to 100% | 80 to 100% | A (80–100) | 50 to 100%
CN(C(=O)C(F)(F)C(F)(F)F)c1c(F)ccc(NC(=O)c2cc(NC(=O)[C@H]3[C@H](c4ccc(Cl)c(Cl)c4)C3(Cl)Cl)ccc2Cl)c1F [F1615, 2-Chloro-5-((1R,3R)-2,2-dichloro-3-(3,4-dichlorophenyl)cyclopropane-1-carboxamido)-N-(2,4-difluoro-3-(2,2,3,3,3-pentafluoro-N-methylpropanamido)phenyl)benzamide] | 50 to 100% | 0 to 80% | A (80–100) | 50 to 100%
CN(C(=O)CC#N)c1c(F)ccc(NC(=O)c2cc(NC(=O)[C@H]3[C@H](c4ccc(Cl)c(Cl)c4)C3(Cl)Cl)ccc2Cl)c1F [F1617, 2-Chloro-N-(3-(2-cyano-N-methylacetamido)-2,4-difluorophenyl)-5-((1R,3R)-2,2-dichloro-3-(3,4-dichlorophenyl)cyclopropane-1-carboxamido)benzamide] | 50 to 100% | 0 to 80% | A (80–100) | 50 to 100%
O=C1CCC(C(=O)Nc2c(F)ccc(NC(=O)c3cc(NC(=O)[C@H]4[C@H](c5ccc(F)c(C(F)(F)F)c5)C4(Cl)Cl)ccc3Cl)c2F)O1 (stereo partly drawn) [F1625, N-(3-(2-Chloro-5-((1R,3R)-2,2-dichloro-3-(4-fluoro-3-(trifluoromethyl)phenyl)cyclopropane-1-carboxamido)benzamido)-2,6-difluorophenyl)-5-oxotetrahydrofuran-2-carboxamide] | 50 to 100% | 0 to 80% | A (80–100) | 50 to 100%
CC(=O)Nc1c(F)cc(F)c(NC(=O)c2cc(NC(=O)[C@H]3[C@H](c4ccc(F)c(Cl)c4)C3(Cl)Cl)ccc2Cl)c1F [F1627, N-(3-Acetamido-2,4,6-trifluorophenyl)-2-chloro-5-((1R,3R)-2,2-dichloro-3-(3-chloro-4-fluorophenyl)cyclopropane-1-carboxamido)benzamide] | 50 to 100% | 80 to 100% | A (80–100) | 50 to 100%
CCC(C)C(=O)Nc1c(F)ccc(NC(=O)c2cc(NC(=O)[C@H]3[C@H](c4ccc(F)c(C(F)(F)F)c4)C3(Cl)Cl)ccc2Cl)c1F (stereo partly drawn) [F1642, 2-Chloro-5-((1R,3R)-2,2-dichloro-3-(4-fluoro-3-(trifluoromethyl)phenyl)cyclopropane-1-carboxamido)-N-(2,4-difluoro-3-(2-methylbutanamido)phenyl)benzamide] | 50 to 100% | 0 to 80% | A (80–100) | 50 to 100%
O=C(Nc1ccc(F)c(NC(=O)C2CCCC2)c1F)c1cc(NC(=O)[C@H]2[C@H](c3ccc(F)c(C(F)(F)F)c3)C2(Cl)Cl)ccc1Cl [F1643, 2-Chloro-N-(3-(cyclopentanecarboxamido)-2,4-difluorophenyl)-5-((1R,3R)-2,2-dichloro-3-(4-fluoro-3-(trifluoromethyl)phenyl)cyclopropane-1-carboxamido)benzamide] | 50 to 100% | 0 to 80% | B (More than 0 – Less than 80) | 50 to 100%
O=C(Nc1ccc(F)c(NC(=O)C2CC(F)(F)C2)c1F)c1cc(NC(=O)[C@H]2[C@H](c3ccc(F)c(C(F)(F)F)c3)C2(Cl)Cl)ccc1Cl [F1644, 2-Chloro-5-((1R,3R)-2,2-dichloro-3-(4-fluoro-3-(trifluoromethyl)phenyl)cyclopropane-1-carboxamido)-N-(3-(3,3-difluorocyclobutane-1-carboxamido)-2,4-difluorophenyl)benzamide] | 50 to 100% | 0 to 80% | B (More than 0 – Less than 80) | 50 to 100%
CCCC(=O)Nc1c(F)ccc(NC(=O)c2cc(NC(=O)[C@H]3[C@H](c4cc(Cl)c(Cl)c(Cl)c4)C3(Cl)Cl)ccc2Cl)c1F [F1655, N-(3-Butyramido-2,4-difluorophenyl)-2-chloro-5-((1R,3R)-2,2-dichloro-3-(3,4,5-trichlorophenyl)cyclopropane-1-carboxamido)benzamide] | 50 to 100% | 0 to 80% | B (More than 0 – Less than 80) | 50 to 100%
O=C(Nc1ccc(F)c(NC(=O)C(F)(F)F)c1F)c1cc(NC(=O)[C@H]2[C@H](c3ccc(Cl)c(C(F)(F)F)c3)C2(Cl)Cl)ccc1Cl [F1656, 2-Chloro-5-((1R,3R)-2,2-dichloro-3-(4-chloro-3-(trifluoromethyl)phenyl)cyclopropane-1-carboxamido)-N-(2,4-difluoro-3-(2,2,2-trifluoroacetamido)phenyl)benzamide] | 50 to 100% | 0 to 80% | A (80–100) | 50 to 100%
